Laboratory results from the supplement of paper PMC10307832.

What was measured:
Assay in all cases: relative viability (nuclei count vs DMSO), 5 days (fraction); higher = more cells survive
Entinostat + Luminespib = compound: Nc1ccccc1NC(=O)c1ccc(CNC(=O)OCc2cccnc2)cc1 [Entinostat] + CCNC(=O)c1noc(-c2cc(C(C)C)c(O)cc2O)c1-c1ccc(CN2CCOCC2)cc1 [Luminespib] (partner 0.01 µM)
Summary of the method: (§1)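 Five library-drug doses in √10 steps were combined with a fixed anchor-drug dose, or a single drug was given alone, by pin tool to lung cancer cell lines in 1536-well plates the day after seeding. Nuclei were stained and counted after 5 days. Relative viability is the nuclei count in treated wells over that in vehicle wells, taken as the median of duplicate plates.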

SGI-1776 + Foretinib = compound: CN1CCC(CNc2ccc3ncc(-c4cccc(OC(F)(F)F)c4)n3n2)CC1 [SGI-1776] + COc1cc2c(Oc3ccc(NC(=O)C4(C(=O)Nc5ccc(F)cc5)CC4)cc3F)ccnc2cc1OCCCN1CCOCC1 [Foretinib] (partner 0.25 µM)
Summary of the method: as §1

Entinostat + Bortezomib = compound: Nc1ccccc1NC(=O)c1ccc(CNC(=O)OCc2cccnc2)cc1 [Entinostat] + CC(C)C[C@H](NC(=O)[C@H](Cc1ccccc1)NC(=O)c1cnccn1)B(O)O [Bortezomib] (partner 0.002 µM)
Summary of the method: as §1

[1] = compound: C1COCCN1C2=NC(=NC3=C2OC4=C3C=CC=N4)C5=CC(=CC=C5)NC(=O)C6=CN=C(C=C6)N + COc1cc2c(Oc3ccc(NC(=O)C4(C(=O)Nc5ccc(F)cc5)CC4)cc3F)ccnc2cc1OCCCN1CCOCC1 [Foretinib] (partner 0.25 µM)
Summary of the method: as §1

| Cell Line | relative viability (Entinostat + Luminespib; first compound 0.02 µM) | relative viability (Entinostat + Luminespib; first compound 0.06325 µM) | relative viability (Entinostat + Luminespib; first compound 0.2 µM) | relative viability (Entinostat + Luminespib; first compound 0.6325 µM) | relative viability (Entinostat + Luminespib; first compound 2 µM) | relative viability (SGI-1776 + Foretinib; first compound 0.08 µM) | relative viability (SGI-1776 + Foretinib; first compound 0.8 µM) | relative viability (SGI-1776 + Foretinib; first compound 2.53 µM) | relative viability (SGI-1776 + Foretinib; first compound 8 µM) | relative viability (Entinostat + Bortezomib; first compound 0.02 µM) | relative viability (Entinostat + Bortezomib; first compound 0.06325 µM) | relative viability (Entinostat + Bortezomib; first compound 0.2 µM) | relative viability (Entinostat + Bortezomib; first compound 0.6325 µM) | relative viability (Entinostat + Bortezomib; first compound 2 µM) | relative viability ([1]; first compound 0.02 µM) | relative viability ([1]; first compound 0.06325 µM) | relative viability ([1]; first compound 0.2 µM) | relative viability ([1]; first compound 0.6325 µM) | relative viability ([1]; first compound 2 µM) |
| --- | --- | --- | --- | --- | --- | --- | --- | --- | --- | --- | --- | --- | --- | --- | --- | --- | --- | --- | --- |
| NCI-H522 | 1.21 | 1.33 | 1.38 | 1.1 | 0.649 | – | – | – | – | – | – | – | – | – | – | – | – | – | – |
| LOU-NH91 | 0.341 | 0.333 | 0.371 | 0.394 | 0.337 | 1.06 | 0.893 | 0.926 | 0.762 | 0.496 | 0.52 | 0.534 | 0.545 | 0.512 | 0.946 | 0.952 | 0.901 | 0.925 | 0.845 |
| NCI-H1355 | 0.724 | 0.611 | 0.616 | 0.504 | 0.418 | 0.953 | 1.02 | 0.958 | 0.919 | 1.19 | 1.16 | 0.951 | 0.725 | 0.603 | 0.995 | 1.12 | 1.1 | 0.927 | 0.642 |
| NCI-H322M | 0.909 | 1.13 | 1.06 | 1.1 | 1.03 | 0.93 | 1.07 | 0.859 | 0.683 | 1.33 | 1.33 | 1.31 | 1.27 | 1.3 | 0.919 | 0.918 | 0.935 | 0.849 | 0.686 |
| NCI-H1395 | 0.711 | 0.663 | 0.634 | 0.659 | 0.6 | 1.05 | 0.975 | 1.01 | 0.857 | – | – | – | – | – | 0.919 | 0.909 | 0.924 | 0.984 | 0.894 |
| NCI-H2023 | 0.648 | 0.528 | 0.313 | 0.111 | 0.0763 | 0.96 | 0.857 | 0.675 | 0.328 | 0.859 | 0.85 | 0.411 | 0.166 | 0.105 | 0.889 | 1.07 | 0.765 | 0.759 | 0.511 |
| NCI-H1666 | 1.05 | 1.19 | 1.04 | 0.701 | 0.445 | 0.975 | 0.956 | 0.948 | 0.914 | 0.855 | 0.694 | 0.741 | 0.441 | 0.321 | 1 | 0.89 | 0.774 | 0.85 | 0.672 |
| NCI-H1944 | 0.73 | 0.625 | 0.397 | 0.329 | 0.183 | 0.869 | 0.83 | 0.926 | 0.713 | – | – | – | – | – | 0.898 | 0.916 | 0.942 | 0.772 | 0.731 |
| Calu-6 | – | – | – | – | – | 0.91 | 0.88 | 0.875 | 0.344 | 1.02 | 1.02 | 0.944 | 0.69 | 0.504 | 1.12 | 0.912 | 0.987 | 0.851 | 0.648 |
| NCI-H2342 | 0.69 | 0.729 | 0.744 | 0.589 | 0.553 | 1.22 | 1.07 | 1.04 | 1.04 | – | – | – | – | – | 0.981 | 1.24 | 1.02 | 1.01 | 0.88 |
| IA-LM | – | – | – | – | – | 1.13 | 1.2 | 1.3 | 1.07 | 0.814 | 0.842 | 1.03 | 0.597 | 0.447 | 0.999 | 1.38 | 0.867 | 0.922 | 0.326 |
| NCI-H1299 | – | – | – | – | – | 1.08 | 1.11 | 1.07 | 1.01 | 1.04 | 0.985 | 0.934 | 0.858 | 0.732 | 1.01 | 1.08 | 1.1 | 1.05 | 0.806 |
| NCI-H1623 | 0.632 | 0.554 | 0.443 | 0.472 | 0.279 | 0.984 | 0.859 | 0.893 | 0.901 | – | – | – | – | – | 0.791 | 0.801 | 0.954 | 0.822 | 0.648 |
| HCC-366 | – | – | – | – | – | 0.907 | 0.963 | 0.961 | 0.392 | 1.08 | 1.15 | 0.831 | 0.41 | 0.0738 | 0.946 | 0.931 | 0.913 | 0.892 | 0.714 |
| HCC-44 | 1.04 | 0.889 | 0.741 | 0.505 | 0.324 | – | – | – | – | 0.861 | 0.758 | 0.698 | 0.373 | 0.269 | – | – | – | – | – |
| SW 900 | 0.185 | 0.157 | 0.222 | 0.163 | 0.202 | 1.05 | 1.12 | 0.9 | 0.817 | – | – | – | – | – | 0.944 | 0.93 | 0.751 | 1.5 | 0.735 |
| LK-2 | 0.18 | 0.192 | 0.178 | 0.188 | 0.178 | 1.26 | 1.23 | 1.35 | 0.682 | – | – | – | – | – | 1.34 | 1.37 | 1.35 | 0.797 | 0.598 |
| SK-MES-1 | 0.798 | 1.03 | 0.891 | 0.882 | 0.353 | 1.06 | 0.762 | 0.857 | 0.648 | – | – | – | – | – | 0.934 | 1.17 | 0.929 | 0.792 | 0.662 |
| NCI-H1793 | 0.224 | 0.157 | 0.177 | 0.171 | 0.161 | 0.953 | 0.597 | 0.5 | 0.184 | – | – | – | – | – | 0.564 | 0.843 | 0.59 | 0.548 | 0.391 |
| A549 | – | – | – | – | – | 1.07 | 0.891 | 0.752 | 0.277 | – | – | – | – | – | 1.05 | 0.987 | 0.988 | 1.06 | 0.225 |
| NCI-H1792 | 0.5 | 0.519 | 0.362 | 0.392 | 0.469 | – | – | – | – | 0.952 | 0.992 | 1.03 | 0.802 | 0.606 | – | – | – | – | – |
| NCI-H358 | 0.48 | 0.484 | 0.407 | 0.238 | 0.159 | 0.698 | 0.553 | 0.467 | 0.198 | – | – | – | – | – | – | 0.721 | 0.537 | 0.68 | 0.477 |
